Results reported in paper PMC4361473, “A New System for Profiling Drug-Induced Calcium Signal Perturbation in Human Embryonic Stem Cell–Derived Cardiomyocytes” (Journal of Biomolecular Screening, 2015).
Read-outs that look alike come from different tables or passages of the source.

How the values were obtained:
Cytiva hSCCMs [1] = test: Whole-cell current-clamp recording of spontaneous action potentials (APD90); assay type: cell-based, human; settings: drug at EC20 concentration, 3 min; Fridericia-corrected; blebbistatin-immobilized cells
Method: Cells in 35-mm glass-bottomed culture dishes containing a superfusion insert (AutoMate PCP-1; Digitimer Ltd., Welwyn Garden City, UK) were mounted on the stage of an inverted microscope (CKX-41; Olympus, Tokyo, Japan) and were superfused with normal Tyrode (NT) solution (containing [in mM] NaCl, KCl, MgCl2 [1], CaCl2 [2], HEPES [10], glucose; pH 7.4 with NaOH) or NT-containing drugs maintained at 37 °C using a heated jacket.
Cells were whole-cell clamped with 3- to 4-MΩ patches and an intrapipette solution (containing in [mM] KCl, MgCl2 [1.75], CaCl2 [5.37], EGTA [10], HEPES [10], and Na2ATP [4]; pH 7.2 with KOH) in current-clamp (IC) mode using a CV-7B headstage and MultiClamp 700B amplifier controlled by MultiClamp software (Molecular Devices, Sunnyvale, CA). Data were digitized and acquired using a Digidata 1322a card and pClamp software, respectively (Molecular Devices). Action potentials were sampled at a rate of 20 kHz and low pass (Bessel) filtered at 10 kHz.
Spontaneous cell contracture was terminated using blebbistatin (5 µM, 10 min), an agent that inhibits myofilament shortening and thereby negates patch-clamp recording instability but preserves normal Ca^2+ cycling.[20] […] Action potential (AP) recordings from blebbistatin-immobilized cells were taken under control (no-drug) conditions (1 min) and following the switch to drug-containing NT. APD90, corrected for AP cycle length using Fridericia’s method (APD90(corr) = APD90/cycle length^[…]), was calculated from five consecutive APs following a 3-min exposure of the cells to drug.
Figure 4. Investigating the effect of cardiovascular-active drugs on Cytiva APD90. (A) Cells were exposed to drugs at EC20 concentrations for 3 min (Suppl. Table S2). APD90 values were corrected for beat period using Fridericia’s algorithm. Data points represent individual paired experiments (n = 6). Representative control (gray) and drug-treated (black) action potential traces are shown. (B) APD90 plotted as the percentage change relative to the paired control value (no drug). *p < 0.05. **p < 0.01.

Cytiva hSCCMs [2] = test: SALVO profiling of drug-evoked Ca2+ signal perturbation (fluo-4 confocal imaging)
Excerpt: Cytiva hSCCMs were derived from monolayer differentiation of an H7 hESC cell line that had been expanded under feeder-free conditions and then subjected to a proprietary differentiation protocol (GE Healthcare, Piscataway, NJ, USA).[13] […] Cells were thawed and seeded into 7-mm^2 chambers created by the adherence of silicon gaskets (CultureWell MultiWell 3 mm in diameter, 1-mm-depth inserts [Life Technologies]) on glass-bottomed culture chambers (In Vitro Scientific, Sunnyvale, CA, USA) that had been precoated with Matrigel (BD Biosciences, Franklin Lakes, NJ, USA), Franklin Lakes, NJ, USA diluted 1:30 (v/v) in Knockout DMEM (Life Technologies, Carlsbad, CA, USA). […] Cells were allowed to adhere to the coverslip for 2 h before the dish was filled with RPMI/B27 (2 mL). Medium was exchanged every 48 h.
Cells were incubated with fluo-4 AM (5 µM) (Life Technologies) for 1 h at 37°C before coverslips were flooded with RPMI/B27 (2 mL). […] Cells were maintained at 37 °C throughout experiments. […] The application of caffeine (5 mM final concentration) was used to trigger sarcoplasmic reticulum (SR) Ca^2+ release and thereby estimate the intra-SR Ca^2+ store load.
Taking our lead from Uhlen’s method of using spectral analysis to investigate the organization of Ca^2+ signals,[14] we developed SALVO to decode the spatiotemporal patterning of Ca^2+ oscillations within individual cells and across multicellular populations. SALVO outputs 30 parameters that describe Ca^2+ signal organization,[15] but for the purposes of this study, we focused on five parameters: oscillation rate (rate, Hz) and four other parameters that quantify the amplitude and temporal patterning of Ca^2+ oscillation: (1) amplitude heterogeneity index (AHI) and (2) temporal heterogeneity index (THI), statistical assessments of signal amplitude and temporal variability within single cells, respectively; (3) intertransient noise (ITN), defined as the Ca^2+ signal variability occurring between Ca^2+ oscillations and that extends the use of signal variability (SV) to measure point-by-point differences in very low-amplitude Ca^2+ signals[6],[10],[12]; and (4) synchronization, an index of the temporal coincidence of Ca^2+ oscillation maxima occurring across cells in the population. The calculation of these parameters is described in Supplementary Figure S1. SALVO is implemented using a Python-based computer program.[15] The detection of signal maxima and minima over a 30-s period in data obtained from 6 to 20 cells in each instance was performed using SALVO’s autodetection algorithms (based on spline detect or threshold detection methods) or by manual assignation of the start, peak, and end of each Ca^2+ spike. SALVO outputs were archived and interrogated using a custom-built SQL-based database system (DB Miner, CHG, NCS, SBJ).
Baseline assessments of Ca^2+ signals in fluo-4–loaded cells prior to the addition of drug (control) were established as described above.
After each addition and following a period of equilibration (approximately 90 s), fluo-4–dependent Ca^2+ signals were acquired for 30 s. Using this protocol, the same population of cells was imaged throughout the entire drug addition sequence.
In all experiments, operators were blinded to the identities of the drugs under test throughout all phases of postexperimental data analysis.
Supplementary Table 2. EC20 values for Ca2+ perturbation.
Drug concentrations (nM) that produced a 20% change from control values (no drug) were calculated for each SALVO parameter from regression analysis of […]
The effective therapeutic plasma concentration of free drug (ETPCunbound, nM) was calculated in Supplementary Table 1.
Calculate percentage effect size (E) for each SALVO parameter, normalized to Ew = E x λ control conditions, at each drug concentration Effect size (E,%) λ
Cumulative Ew for drug concentrations of 0.1, 1, 10, 100 and 1000 nM for The relationship between E and λ is given by […]

[3] = Effective therapeutic plasma concentration (ETPC, ETPCunbound); assay type: in vivo, human; settings: free plasma concentration calculated from ETPC and free drug %, Supplementary Table 1
Excerpt: There is also the issue regarding the relevance of drug potency determined in vitro to clinical dosing in humans. Guo and colleagues[25],[27] used an impedance-derived index of arrhythmic beating in hSCCMs to derive a predicted proarrhythmic score (PPS) that took into account the therapeutically relevant total concentration of drug in human plasma (defined as Ceff). More recently, Clements and Thomas[13] used a similar approach to generate a predictive risk score (PRS) based on their measurement of field potential duration (FPD) in Cytiva.
Supplementary Table 1. Calculating the free plasma concentration of […]
described by Redfern et al. (Redfern et al. (2003) Cardiovasc. Res. 58:32-45) was used to calculate the levels of free drug (ETPCunbound). ETPC for nadolol and valdecoxib were from Krukemyer et al. (Pharm. Res. (1990) 9:953-956) and Yuan et al. (Drug Metab. Disp. (2002) 30:1013-1021), respectively. The values for drug-protein binding were obtained from DrugBank (www.drugbank.ca).

[4] = cited from earlier work
[5] = maximal effective therapeutic plasma concentration, cited from earlier work
[6] = design: method as in DrugBank (www.drugbank.ca); settings: from drug-protein binding values; ref DrugBank (www.drugbank.ca); cited from earlier work
[7] = 20% change from control in amplitude heterogeneity index, regression of Figure 3 data
[8] = 20% change from control in intercellular synchronization, regression of Figure 3 data
[9] = 20% change from control in intertransient noise, regression of Figure 3 data
[10] = 20% change from control in temporal heterogeneity index, regression of Figure 3 data
[11] = drug concentration producing a 20% change from control (no drug) in Ca2+ oscillation rate, regression of Figure 3 data
[12] = five-parameter SALVO output integrated over 0.1-1000 nM, normalized to control
[13] = spontaneously oscillating Cytiva, concentrations up to 30 µM
[14] = spontaneously oscillating Cytiva

| SMILES | Effect on APD90 (action potential duration) (Cytiva hSCCMs [1]) | EC20 AHI (Cytiva hSCCMs [2]; [7]) [nM] | EC20 Synch (Cytiva hSCCMs [2]; [8]) [µM] | EC20 ITN (Cytiva hSCCMs [2]; [9]) [µM] | EC20 THI (Cytiva hSCCMs [2]; [10]) [µM] | Predicted proarrhythmic score (PPS) (Cytiva hSCCMs [2]; PPS = ETPCunbound/EC20) | EC20 Rate (Cytiva hSCCMs [2]; [11]) [µM] | SALVO toxicity score, rank order of the extent of Ca2+ perturbation (Cytiva hSCCMs [2]; [12]) | Effect on Ca2+ handling (SALVO parameters) (Cytiva hSCCMs [2]; [13]) | ETPCunbound [3] [nM] | Free drug [6] [%] | further results |
| --- | --- | --- | --- | --- | --- | --- | --- | --- | --- | --- | --- | --- |
| O=C(NCC1CCCCN1)c1cc(OCC(F)(F)F)ccc1OCC(F)(F)F (centres unmarked) [Flecainide, flecainide] | no effect | 260 | > 30 | 2.11 | 0.285 | elevated PPS | 0.215 | astemizole > thioridazine > cisapride > flecainide > valdecoxib > sotalol > nadolol | large effect sizes in multiple parameters | 1159 |  |  |
| CC(C)NCC(O)c1ccc(NS(C)(=O)=O)cc1 (centres unmarked) [Sotalol, sotalol] |  | 210 | > 30 | > 30 | > 30 | ~ 15 | > 30 | astemizole > thioridazine > cisapride > flecainide > valdecoxib > sotalol > nadolol |  | 14733 |  | Therapeutic plasma concentration with QT-prolonging effects ([4]; reported, no reference given): exceeding 10 µM; ETPC ([5]; ref Redfern et al. (2003) Cardiovasc. Res. 58:32-45): 14733 nM; Concentration causing an isolated change in AHI (Cytiva hSCCMs [2]; [14]): > 1 µM; Effect on intercellular synchronization (Cytiva hSCCMs [2]; [14]): did not reduce the extent of intercellular synchronization; ETPCunbound ([3]; listed as sotalol): 14,733 nM |
| CSc1ccc2c(c1)N(CCC1CCCCN1C)c1ccccc1S2 (centres unmarked) [Thioridazine, thioridazine] | increased APD90 | 205 | 0.12 | 0.11 | 0.53 |  | 1.12 | astemizole > thioridazine > cisapride > flecainide > valdecoxib > sotalol > nadolol | large effect sizes in multiple parameters | 89 |  | PPS rank order (Cytiva hSCCMs [2]; PPS = ETPCunbound/EC20): thioridazine > cisapride > valdecoxib |
| CC(C)(C)NCC(O)COc1cccc2c1CC(O)C(O)C2 (centres unmarked) [Nadolol, nadolol] |  | > 30000 | > 30 | > 30 | > 30 |  | > 30 | astemizole > thioridazine > cisapride > flecainide > valdecoxib > sotalol > nadolol | no measurable effect | 271 | 70 | TdP risk category ([4]; categories assigned by Redfern and colleagues): category 5; ETPC ([5]; ref Krukemyer et al. (Pharm. Res. (1990) 9:953-956)): 387 nM |
| Cc1onc(-c2ccccc2)c1-c1ccc(S(N)(=O)=O)cc1 [Valdecoxib, valdecoxib] | no effect |  |  |  |  |  |  |  |  | 45 | 2 | ETPC ([5]; ref Yuan et al. (Drug Metab. Disp. (2002) 30:1013-1021)): 2257 nM; EC20 AHI (Cytiva hSCCMs [2]): 685 nM; EC20 ITN (Cytiva hSCCMs [2]): > 30 µM; EC20 Rate (Cytiva hSCCMs [2]): 9.87 µM; EC20 Synch (Cytiva hSCCMs [2]): > 30 µM; EC20 THI (Cytiva hSCCMs [2]): 12.8 µM; Effect on Ca2+ handling (SALVO parameters) (Cytiva hSCCMs [2]): large effect sizes in multiple parameters; PPS rank order (Cytiva hSCCMs [2]): thioridazine > cisapride > valdecoxib; SALVO toxicity score, rank order of the extent of Ca2+ perturbation (Cytiva hSCCMs [2]): astemizole > thioridazine > cisapride > flecainide > valdecoxib > sotalol > nadolol |
